Laboratory results: the supplement of paper PMC10883282

Columns and labels:
SW684 = test: standardised AUC of viability dose-response curve (72 h) (fraction (0-1)); higher = less growth inhibition (more resistant)
In short: (§1)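 In 384-well plates, sarcoma cell lines were exposed for 72 h, in triplicate, to 2.5 µl of a 1:3 compound dilution series whose compound-plate concentrations ran from 10 mM to 0.0002 mM. Four-parameter log-logistic models were fitted per drug and cell line to ATPLite viability, scaled 1 (full) to 0 (none). From these fits, a modified drexplorer computeAUC gave the standardised area under the curve in log-dose space. Here 1 marks no response and 0 full response.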

SK-ES-1 = test: as above
In short: as §1

KHOS-240S [1] = test: as above
In short: as §1

KHOS-NP = test: as above
In short: as §1

SW1353 [2] = test: as above
In short: as §1

SW872 = test: as above
In short: as §1

RD = test: as above
In short: as §1

RD-ES [3] = test: as above
In short: as §1

SW982 [4] = test: as above
In short: as §1

SYO-1 = test: as above
In short: as §1

VA-ES-BJ = test: as above
In short: as §1

HT1080 [5] = test: as above
In short: as §1

HS729 = test: as above
In short: as §1

A204 = test: as above
In short: as §1

SK-LMS-1 = test: as above
In short: as §1

G401 = test: as above
In short: as §1

MES-SA = test: as above
In short: as §1

KHOS-240S [6] = test: relative viability vs DMSO control (72 h) (fraction); higher = more viable cells
In short: (§2)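 ATPLite readings, expressed as percent growth and averaged over up to triplicate wells, provided relative viability. Before reading, sarcoma cell lines seeded in 384-well plates to reach 80–90% confluence received 2.5 µl of serially diluted compound after 24 h, from source plates of 10 mM to 0.0002 mM. Plates were held 72 h at 37 °C, 5% CO2, with 0.1% DMSO as vehicle and a 5 µM positive control. The data were rescaled to 1 for full and 0 for none.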

SW1353 [7] = test: as above
In short: as §2

RD-ES [8] = test: as above
In short: as §2

SW982 [9] = test: as above
In short: as §2

HT1080 [10] = test: as above
In short: as §2

CN(C)CCCOc1ccc(-c2ccc3ncc4c(c3c2)n(C2CCOCC2)c(=O)n4C)cn1 [AZD-0156]
Conditions	standardised AUC
A204	0.854
G401	0.963
HS729	0.883
HT1080 [5]	0.991
KHOS-240S [1]	0.914
KHOS-NP	0.975
MES-SA	0.887
RD	0.921
RD-ES [3]	0.785
SK-ES-1	0.748
SK-LMS-1	0.858
SW684	0.891
SW872	0.749
SW982 [4]	0.752
SW1353 [2]	0.917
SYO-1	0.777
VA-ES-BJ	0.753

relative viability
Conditions	HT1080 [10]	KHOS-240S [6]	RD-ES [8]	SW982 [9]	SW1353 [7]
0.00017 µM	1.04	1.08	0.944	1.05	1.1
0.00051 µM	1.1	1.1	1.01	1.08	1.07
0.00152 µM	1.091	1.1	1.03	1.06	1.05
0.00457 µM	1.12	1.08	1	1.05	1.07
0.01372 µM	1.09	1.06	0.861	1.03	1.01
0.04115 µM	1.09	1.03	0.839	0.964	1.02
0.1235 µM	1.07	1.04	0.7218	0.828	0.97
0.3704 µM	1.06	0.99	0.69	0.619	0.951
1.111 µM	1.09	0.865	0.616	0.484	0.883
3.333 µM	1.11	0.814	0.548	0.349	0.949
10 µM	1.026	0.587	0.36	0.218	0.865
